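How tested: cells in 96-well plates exposed to compound for 48 hours at five concentrations. GI50 marks 50% less growth.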 Active and inactive are the calls of the source. Rule as the data show it: active = GI50 up to about 1.1 µM and inactive = higher.
Legend:
Experiment in all cases: NCI anticancer screen, dose series, 48 h
[1] = tested on: U-251
[2] = tested on: UO-31
[3] = tested on: SR
[4] = tested on: UACC-62
[5] = tested on: MDA-MB-435
[6] = tested on: UACC-257
[7] = tested on: CAKI-1
[8] = tested on: ACHN
[9] = tested on: DU-145
[10] = tested on: NCI-H522
[11] = tested on: A549
[12] = tested on: HOP-62
[13] = tested on: HT-29
[14] = tested on: NCI-H23
[15] = tested on: Malme-3M
[16] = tested on: SK-MEL-2
[17] = tested on: SN12C
[18] = tested on: PC-3
[19] = tested on: CCRF-CEM
[20] = tested on: HL-60

Measured: GI50

Cc1ccc(S(=O)(=O)NC(=O)OC23COCN2COC3)cc1
inactive: [1] > 100 µM | [2] > 100 µM | [3] 31.6 µM | [4] > 100 µM | [5] > 100 µM | [6] > 100 µM | [7] > 100 µM | [8] > 100 µM | [9] > 100 µM | [10] > 100 µM | [11] > 100 µM | [12] > 100 µM | [13] > 100 µM | [14] > 100 µM | [15] > 100 µM | [16] > 100 µM | [17] > 100 µM | [18] > 100 µM

CN1C(=O)CC(=O)N1/C(=C/c1ccccc1)c1ccccc1
inactive: [1] > 100 µM | [2] 18.1 µM | [3] 76.4 µM | [4] 76.9 µM | [5] 66.8 µM | [6] > 100 µM | [7] 23.7 µM | [8] 54.1 µM | [9] > 100 µM | [11] 85.3 µM | [12] > 100 µM | [13] > 100 µM | [14] > 100 µM | [19] 21.3 µM | [16] 38.5 µM | [17] > 100 µM | [18] 32 µM

Cc1ccc2c3c1[C@@H]1O[C@@H]1c1cccc(c1-3)[C@@H]1O[C@H]21
inactive: [1] 11.9 µM | [2] 12 µM | [3] 11.5 µM | [4] 20 µM | [5] 14.1 µM | [6] 15.9 µM | [7] 16.4 µM | [8] 12.7 µM | [9] 11 µM | [10] 12.2 µM | [11] 15.9 µM | [12] 15.7 µM | [13] 6.07 µM | [14] 15.1 µM | [15] 15.3 µM | [16] 16.1 µM | [17] 11.1 µM | [18] 15 µM

O=C(OCc1ccccc1)OOC(=O)OCc1ccccc1
inactive: [1] > 100 µM | [2] > 100 µM | [3] > 100 µM | [4] > 100 µM | [6] > 100 µM | [7] > 100 µM | [8] > 100 µM | [10] > 100 µM | [11] > 100 µM | [12] > 100 µM | [20] > 100 µM | [13] > 100 µM | [14] > 100 µM | [19] > 100 µM | [15] > 100 µM | [16] > 100 µM | [17] > 100 µM

CCOC(=O)C1=NN(c2ccc(Cl)cc2)C2=CC(C)=NN(C)C(=S)N21
inactive: [1] 25.9 µM | [2] > 100 µM | [3] > 100 µM | [4] 40.6 µM | [5] > 100 µM | [6] > 100 µM | [7] 19.9 µM | [8] 72.6 µM | [9] 79.3 µM | [10] 20.7 µM | [11] 95.7 µM | [20] > 100 µM | [13] > 100 µM | [14] 42.1 µM | [19] > 100 µM | [16] > 10 µM | [17] 51.5 µM | [18] > 100 µM

CC(=C(c1ccccc1)c1ccccc1)N1C(=O)CC(=O)N1C
inactive: [1] 61.4 µM | [2] 17.1 µM | [4] 26 µM | [5] 41.1 µM | [6] > 100 µM | [7] 21.1 µM | [8] > 100 µM | [9] > 100 µM | [11] 35 µM | [12] 27.5 µM | [13] > 100 µM | [14] > 100 µM | [19] 40 µM | [16] 16.7 µM | [17] > 100 µM | [18] 21.9 µM

COc1ccc2c(c1)c1c(n2CCN(C)C)-c2ccccc2CC1
inactive: [1] 13.1 µM | [2] 13.5 µM | [4] 14.5 µM | [5] 16.5 µM | [6] 16.3 µM | [7] 14.3 µM | [8] 16.4 µM | [9] 15.9 µM | [10] 18.5 µM | [11] 15.6 µM | [12] 16.4 µM | [13] 7.78 µM | [14] 18 µM | [19] 11.3 µM | [15] 20.3 µM | [16] 16.1 µM | [17] 14.1 µM | [18] 12.6 µM

CCOC(=O)C1(C(F)(F)F)N=C(CC)OC(N2CCOCC2)=N1 (stereo not given)
inactive: [1] > 100 µM | [2] > 100 µM | [3] > 100 µM | [4] 54.5 µM | [5] > 100 µM | [6] > 100 µM | [7] > 100 µM | [8] > 100 µM | [9] > 100 µM | [10] > 100 µM | [11] > 100 µM | [20] > 100 µM | [13] > 100 µM | [14] > 100 µM | [19] > 100 µM | [16] > 100 µM | [17] > 100 µM | [18] > 100 µM

N=C(N)SCCC(=O)CCSC(=N)N
inactive: [1] > 100 µM | [2] > 100 µM | [3] > 100 µM | [5] > 100 µM | [6] 36 µM | [8] > 100 µM | [9] > 100 µM | [10] > 100 µM | [11] > 100 µM | [20] > 100 µM | [13] > 100 µM | [14] > 100 µM | [19] > 100 µM | [17] > 100 µM | [18] > 100 µM

C=CC1(c2ccccc2Cl)N/C(=C/OCC)CO1 (stereo not given)
inactive: [1] > 100 µM | [2] > 100 µM | [3] > 100 µM | [4] > 100 µM | [6] > 100 µM | [7] > 100 µM | [8] > 100 µM | [10] > 100 µM | [11] 38.2 µM | [12] > 100 µM | [20] 47.9 µM | [13] > 100 µM | [14] > 100 µM | [19] > 100 µM | [15] > 100 µM | [16] > 100 µM | [17] > 100 µM

O=C(O)C(F)(F)C(F)(F)C(F)(F)C(F)(F)C(F)(F)C(F)(F)C(F)(F)C(F)(F)F
inactive: [1] 26.4 µM | [2] 47.5 µM | [4] > 100 µM | [5] 48.3 µM | [6] > 100 µM | [7] > 100 µM | [8] 65.3 µM | [9] 47.6 µM | [10] 62.5 µM | [11] 47.8 µM | [12] 52.6 µM | [20] 25.2 µM | [13] 48.2 µM | [14] 61.4 µM | [19] 28.2 µM | [15] > 100 µM | [17] 50.5 µM | [18] 42.1 µM

COC(=O)C(/C(=N/NC(N)=S)C(=O)Nc1ccccc1[N+](=O)[O-])c1cnc2ccccc2n1 (stereo not given)
inactive: [1] > 100 µM | [2] > 100 µM | [3] > 100 µM | [4] > 100 µM | [6] > 100 µM | [7] > 100 µM | [8] > 100 µM | [10] > 100 µM | [11] > 100 µM | [12] > 100 µM | [20] > 100 µM | [13] > 100 µM | [14] > 100 µM | [19] > 100 µM | [15] > 100 µM | [16] > 100 µM | [17] > 100 µM

CC12CCC(=O)[C@@]1(C)CCCC2O (stereo not given in full)
inactive: [1] > 100 µM | [2] > 100 µM | [3] > 100 µM | [4] > 100 µM | [6] > 100 µM | [7] > 100 µM | [8] > 100 µM | [9] > 100 µM | [10] > 100 µM | [11] > 100 µM | [12] > 100 µM | [20] > 100 µM | [13] > 100 µM | [14] > 100 µM | [19] > 100 µM | [15] > 100 µM | [16] > 100 µM | [17] > 100 µM | [18] > 100 µM

O=C(O)c1ccc(C(=O)O)c2c(C(=O)O)ccc(C(=O)O)c12
inactive: [1] > 100 µM | [2] > 100 µM | [3] > 100 µM | [4] > 100 µM | [5] > 100 µM | [6] > 100 µM | [7] > 100 µM | [8] > 100 µM | [9] > 100 µM | [10] > 100 µM | [11] > 100 µM | [12] > 100 µM | [13] > 100 µM | [14] > 100 µM | [15] > 100 µM | [16] > 100 µM | [17] > 100 µM | [18] > 100 µM

CC=C/C=C/[C@@H]1O[C@](O)([C@H](CC)C(=O)NC/C=C/C=C(\C)[C@@H](OC)[C@@H](C)[C@@H]2O[C@H](/C=C/C=C/C=C(\C)C(=O)c3c(O)cc[nH]c3=O)[C@H](O)[C@@H]2O)[C@H](O)[C@H](O)C1(C)C
inactive: [1] > 100 µM | [2] > 100 µM | [3] > 100 µM | [4] > 100 µM | [5] > 100 µM | [6] > 100 µM | [8] > 100 µM | [10] > 100 µM | [11] > 100 µM | [12] > 100 µM | [20] 93.5 µM | [13] > 100 µM | [14] > 100 µM | [15] 94.2 µM | [16] > 100 µM | [18] > 100 µM

From ChEMBL document CHEMBL1201862, “PubChem BioAssay data set” (2004)
